Measured values published in ChEMBL document CHEMBL3856212, “Synthesis, anti-proliferative and genotoxicity studies of 6-chloro-5-(2-substituted-ethyl)-1,3-dihydro-2H-indol-2-ones and 6-chloro-5-(2-chloroethyl)-3-(alkyl/ary-2-ylidene)indolin-2-ones” (Eur J Med Chem, 2016).

Assays:
[1] = Cytotoxicity against human HL-60(TB) cells assessed as growth inhibition after 48 hrs by SRB assay; type: functional; conditions: HL-60, 48 h; for CC50: read-out: LD50 (the source's name)
[2] = Cytotoxicity against human HOP62 cells assessed as growth inhibition after 48 hrs by SRB assay; type: functional; conditions: HOP-62, 48 h; for CC50: read-out: LD50 (the source's name)
[3] = Cytotoxicity against human NCI-H226 cells assessed as growth inhibition after 48 hrs by SRB assay; type: functional; conditions: NCI-H226, 48 h; for CC50: read-out: LD50 (the source's name)
[4] = Cytotoxicity against human NCI-H460 cells assessed as growth inhibition after 48 hrs by SRB assay; type: functional; conditions: NCI-H460, 48 h; for CC50: read-out: LD50 (the source's name)
[5] = Cytotoxicity against human KM12 cells assessed as growth inhibition after 48 hrs by SRB assay; type: functional; conditions: KM12, 48 h; for CC50: read-out: LD50 (the source's name)
[6] = Cytotoxicity against human SW620 cells assessed as growth inhibition after 48 hrs by SRB assay; type: functional; conditions: SW-620, 48 h; for CC50: read-out: LD50 (the source's name)
[7] = Cytotoxicity against human SF268 cells assessed as growth inhibition after 48 hrs by SRB assay; type: functional; conditions: SF-268, 48 h; for CC50: read-out: LD50 (the source's name)
[8] = Cytotoxicity against human SF295 cells assessed as growth inhibition after 48 hrs by SRB assay; type: functional; conditions: SF-295, 48 h; for CC50: read-out: LD50 (the source's name)
[9] = Cytotoxicity against human MDA-MB-435 cells assessed as growth inhibition after 48 hrs by SRB assay; type: functional; conditions: MDA-MB-435, 48 h, read-out: LD50 (the source's name)
[10] = Cytotoxicity against human SK-MEL-28 cells assessed as growth inhibition after 48 hrs by SRB assay; type: functional; conditions: SK-MEL-28, 48 h; for CC50: read-out: LD50 (the source's name)
[11] = Cytotoxicity against human UACC62 cells assessed as growth inhibition after 48 hrs by SRB assay; type: functional; conditions: UACC-62, 48 h; for CC50: read-out: LD50 (the source's name)
[12] = Cytotoxicity against human NCI-ADR-RES cells assessed as growth inhibition after 48 hrs by SRB assay; type: functional; conditions: for CC50: read-out: LD50 (the source's name)
[13] = Cytotoxicity against human 786-0 cells assessed as growth inhibition after 48 hrs by SRB assay; type: functional; conditions: 786-0, 48 h; for CC50: read-out: LD50 (the source's name)
[14] = Cytotoxicity against human Caki1 cells assessed as growth inhibition after 48 hrs by SRB assay; type: functional; conditions: CAKI-1, 48 h; for CC50: read-out: LD50 (the source's name)
[15] = Cytotoxicity against human SN12C cells assessed as growth inhibition after 48 hrs by SRB assay; type: functional; conditions: for CC50: read-out: LD50 (the source's name)
[16] = Cytotoxicity against human NCI-H226 cells assessed as assessed as growth inhibition at 10^-5 M after 48 hrs by SRB assay relative to control; type: functional; conditions: NCI-H226, 48 h, read-out: GI
[17] = Cytotoxicity against human HCC2998 cells assessed as assessed as growth inhibition at 10^-5 M after 48 hrs by SRB assay relative to control; type: functional; conditions: HCC 2998, 48 h, read-out: GI
[18] = Cytotoxicity against human HCT116 cells assessed as assessed as growth inhibition at 10^-5 M after 48 hrs by SRB assay relative to control; type: functional; conditions: HCT-116, 48 h, read-out: GI
[19] = Cytotoxicity against human HCT15 cells assessed as assessed as growth inhibition at 10^-5 M after 48 hrs by SRB assay relative to control; type: functional; conditions: HCT-15, 48 h, read-out: GI
[20] = Cytotoxicity against human KM12 cells assessed as assessed as growth inhibition at 10^-5 M after 48 hrs by SRB assay relative to control; type: functional; conditions: KM12, 48 h, read-out: GI
[21] = Cytotoxicity against human SF268 cells assessed as assessed as growth inhibition at 10^-5 M after 48 hrs by SRB assay relative to control; type: functional; conditions: SF-268, 48 h, read-out: GI
[22] = Cytotoxicity against human OVCAR3 cells assessed as assessed as growth inhibition at 10^-5 M after 48 hrs by SRB assay relative to control; type: functional; conditions: OVCAR-3, 48 h, read-out: GI
[23] = Cytotoxicity against human OVCAR5 cells assessed as assessed as growth inhibition at 10^-5 M after 48 hrs by SRB assay relative to control; type: functional; conditions: OVCAR-5, 48 h, read-out: GI
[24] = Cytotoxicity against human 786-0 cells assessed as assessed as growth inhibition at 10^-5 M after 48 hrs by SRB assay relative to control; type: functional; conditions: 786-0, 48 h, read-out: GI
[25] = Cytotoxicity against human ACHN cells assessed as assessed as growth inhibition at 10^-5 M after 48 hrs by SRB assay relative to control; type: functional; conditions: read-out: GI
[26] = Cytotoxicity against human Caki1 cells assessed as assessed as growth inhibition at 10^-5 M after 48 hrs by SRB assay relative to control; type: functional; conditions: CAKI-1, 48 h, read-out: GI
[27] = Cytotoxicity against human SN12C cells assessed as assessed as growth inhibition at 10^-5 M after 48 hrs by SRB assay relative to control; type: functional; conditions: read-out: GI
[28] = Cytotoxicity against human UO31 cells assessed as assessed as growth inhibition at 10^-5 M after 48 hrs by SRB assay relative to control; type: functional; conditions: UO-31, 48 h, read-out: GI
[29] = Cytotoxicity against human PC3 cells assessed as assessed as growth inhibition at 10^-5 M after 48 hrs by SRB assay relative to control; type: functional; conditions: PC-3, 48 h, read-out: GI
[30] = Cytotoxicity against human T47D cells assessed as assessed as growth inhibition at 10^-5 M after 48 hrs by SRB assay relative to control; type: functional; conditions: read-out: GI
[31] = Cytotoxicity against human MDA-MB-468 cells assessed as assessed as growth inhibition at 10^-5 M after 48 hrs by SRB assay relative to control; type: functional; conditions: MDA-MB-468, 48 h, read-out: GI
Mus musculus [32] = species on record: Mus musculus; experiment: Genotoxicity in mouse EAC cells at 125 uM after 24 hrs by micronucleus assay (reference value: 3.5 +/- 0.30%); type: toxicity, cell-based; conditions: ehrlich
Mus musculus [33] = species on record: Mus musculus; experiment: Genotoxicity in mouse EAC cells at 375 uM after 24 hrs by micronucleus assay (reference value: 3.5 +/- 0.30%); type: toxicity, cell-based; conditions: ehrlich
Mus musculus [34] = species on record: Mus musculus; experiment: Genotoxicity in mouse EAC cells at 500 uM after 24 hrs by micronucleus assay (reference value: 3.5 +/- 0.30%); type: toxicity, cell-based; conditions: ehrlich

O=C1Cc2cc(CCn3ccnc3)c(Cl)cc2N1
GI50 [1]: 6.32 µM | TGI [1]: > 1000 nM | CC50 [1]: > 1000 nM | GI50 [2]: 3320 nM | TGI [2]: > 1000 nM | CC50 [2]: > 1000 nM | GI50 [3]: 1000 nM | TGI [3]: > 1000 nM | CC50 [3]: > 1000 nM | GI50 [4]: 1610 nM | TGI [4]: > 1000 nM | CC50 [4]: > 1000 nM | GI50 [5]: 3.58 µM | TGI [5]: 9.84 µM | CC50 [5]: > 1000 nM | GI50 [6]: 5.02 µM | TGI [6]: > 1000 nM | CC50 [6]: > 1000 nM | GI50 [7]: 1210 nM | TGI [7]: > 1000 nM | CC50 [7]: > 1000 nM | GI50 [8]: 7.87 µM | TGI [8]: > 1000 nM | CC50 [8]: > 1000 nM | CC50 [9]: > 1000 nM | GI50 [10]: 2.97 µM | TGI [10]: > 1000 nM | CC50 [10]: > 1000 nM | GI50 [11]: 7.68 µM | TGI [11]: > 1000 nM | CC50 [11]: > 1000 nM | GI50 [12]: 5.46 µM | TGI [12]: > 1000 nM | CC50 [12]: > 1000 nM | GI50 [13]: 1000 nM | TGI [13]: > 1000 nM | CC50 [13]: > 1000 nM | GI50 [14]: 6.32 µM | TGI [14]: > 1000 nM | CC50 [14]: > 1000 nM | GI50 [15]: 1.65 µM | TGI [15]: > 1000 nM | CC50 [15]: > 1000 nM | inhibition of growth at 10 µM [16]: 10.7% | inhibition of growth at 10 µM [17]: 28.5% | inhibition of growth at 10 µM [18]: 28% | inhibition of growth at 10 µM [19]: 32.8% | inhibition of growth at 10 µM [20]: 67.8% | inhibition of growth at 10 µM [21]: 27.6% | inhibition of growth at 10 µM [22]: 36.5% | inhibition of growth at 10 µM [23]: 18.9% | inhibition of growth at 10 µM [24]: 10.6% | inhibition of growth at 10 µM [25]: 21.7% | inhibition of growth at 10 µM [26]: 36.3% | inhibition of growth at 10 µM [27]: 48.8% | inhibition of growth at 10 µM [28]: 39.3% | inhibition of growth at 10 µM [29]: 11.7% | inhibition of growth at 10 µM [30]: 5.51% | inhibition of growth at 10 µM [31]: 69.2% | Activity (Mus musculus [32]): 2.76% | Activity (Mus musculus [33]): 3.43% | Activity (Mus musculus [34]): 4.83%

O=C1Cc2cc(CCN3CCNCC3)c(Cl)cc2N1
GI50 [1]: 4.3 µM | TGI [1]: > 1000 nM | CC50 [1]: > 1000 nM | GI50 [2]: 1930 nM | TGI [2]: > 1000 nM | CC50 [2]: > 1000 nM | GI50 [3]: 1000 nM | TGI [3]: > 1000 nM | CC50 [3]: > 1000 nM | GI50 [4]: 2290 nM | TGI [4]: > 1000 nM | CC50 [4]: > 1000 nM | GI50 [5]: 3.96 µM | TGI [5]: > 1 µM | CC50 [5]: > 1000 nM | GI50 [6]: 4.97 µM | TGI [6]: > 1000 nM | CC50 [6]: > 1000 nM | GI50 [7]: 1270 nM | TGI [7]: > 1000 nM | CC50 [7]: > 1000 nM | GI50 [8]: 4.2 µM | TGI [8]: > 1000 nM | CC50 [8]: > 1000 nM | CC50 [9]: > 1000 nM | GI50 [10]: 3.7 µM | TGI [10]: > 1000 nM | CC50 [10]: > 1000 nM | GI50 [11]: 6.54 µM | TGI [11]: > 1000 nM | CC50 [11]: > 1000 nM | GI50 [12]: 5.11 µM | TGI [12]: > 1000 nM | CC50 [12]: > 1000 nM | GI50 [13]: 1000 nM | TGI [13]: > 1000 nM | CC50 [13]: > 1000 nM | GI50 [14]: 6.11 µM | TGI [14]: > 1000 nM | CC50 [14]: > 1000 nM | GI50 [15]: 6 µM | TGI [15]: > 1000 nM | CC50 [15]: > 1000 nM | inhibition of growth at 10 µM [16]: 19.4% | inhibition of growth at 10 µM [17]: 24.3% | inhibition of growth at 10 µM [18]: 34.8% | inhibition of growth at 10 µM [19]: 51.2% | inhibition of growth at 10 µM [20]: 70.4% | inhibition of growth at 10 µM [21]: 27.9% | inhibition of growth at 10 µM [22]: 17.2% | inhibition of growth at 10 µM [23]: 34.7% | inhibition of growth at 10 µM [24]: 15.3% | inhibition of growth at 10 µM [25]: 35.5% | inhibition of growth at 10 µM [26]: 37.2% | inhibition of growth at 10 µM [27]: 52.8% | inhibition of growth at 10 µM [28]: 36.8% | inhibition of growth at 10 µM [29]: 16.5% | inhibition of growth at 10 µM [30]: 17.3% | inhibition of growth at 10 µM [31]: 89% | Activity (Mus musculus [32]): 3.36% | Activity (Mus musculus [33]): 6.33% | Activity (Mus musculus [34]): 6.26%
